The values below come from patent publication US4988707A, “Pharmacologically active phenylalkanoyl substituted imidazo (4,5-C) pyridines” (G. D. Searle & Co., priority 1989, dated 1991).

A word on the IC50: it is the concentration at which inhibition is half-maximal. The inhibition is the drop in the measured response relative to a control, in per cent.

In experiment [1] the test system is Rabbit Platelet. Kind of experiment: PAF-induced platelet aggregation. It is filed as cell-based. To be noted: Oryctolagus cuniculus, washed rabbit platelets, 60 sec preincubation, PAF 0.2 nM to 0.2 μM, aggregation at 60 sec. On the procedure:
(§1) PAF-induced platelet aggregation and secretion: Washed, [^3 H]serotonin-labeled rabbit platelets were prepared as previously described in COX, C. P , J. LINDEN and S. I. SAID: VIP elevates platelet cyclic AMP (cAMP) levels and inhibits in vitro platelet activation induced by platelet activating factor (PAF). Peptides 5:25-28, 1984, and maintained in an atmosphere of 5% CO2 at 37° C. until used in the bioassay. Aliquots of platelets (2.5×10^8 /ml) were incubated with either an antagonist of PAF or the appropriate vehicle for 60 sec prior to the addition of PAF (0.2 nM to 0.2 μM). Aggregation was continuously monitored on a strip-chart recorder and recorded as the height of the tracing at 60 sec after the addition of PAF. Secretion of [^3 H] serotonin was measured in a sample of the platelet suspension removed at 60 sec after the addition of PAF. The percent inhibition of aggregation and secretion was calculated by comparing antagonist-treated platelets with the appropriate vehicle-treated control platelets. Each combination of antagonist and PAF was repeated using different platelet preparations. IC50 values were determined by inspection of the dose-response curves.

The subject of experiment [2] is Rabbit Platelet. Kind of experiment: PAF-induced platelet secretion ([3H]serotonin). It counts as cell-based. To be noted: Oryctolagus cuniculus, washed [3H]serotonin-labeled rabbit platelets, 60 sec preincubation, PAF 0.2 nM to 0.2 μM, secretion at 60 sec. On the procedure: as §1
For another experiment, the target named is Human Platelet Receptor (Homo sapiens, UniProt P25105).
Sequence of Human Platelet Receptor (P25105 whole entry): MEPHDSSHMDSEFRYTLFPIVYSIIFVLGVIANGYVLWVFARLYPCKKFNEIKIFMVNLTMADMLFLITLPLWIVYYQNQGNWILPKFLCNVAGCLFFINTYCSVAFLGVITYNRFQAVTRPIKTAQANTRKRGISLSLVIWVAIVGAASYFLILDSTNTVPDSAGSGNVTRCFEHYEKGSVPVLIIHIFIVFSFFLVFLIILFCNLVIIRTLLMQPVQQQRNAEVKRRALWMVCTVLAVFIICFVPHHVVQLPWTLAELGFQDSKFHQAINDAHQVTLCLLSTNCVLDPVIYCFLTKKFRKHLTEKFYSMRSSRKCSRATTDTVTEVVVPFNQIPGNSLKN

Method for Human Platelet Receptor: Inhibition of ^3 H-PAF Binding to Human Platelet Membrane Receptors
Receptor Preparation: Ten units of in-dated human packed platelets, each containing 45-65 ml platelet rich-plasma, were purchased from a commercial blood bank. Disposable plasticware was used throughout for receptor preparation. The units were pooled and a 1 ml aliquot was removed for determination of platelet concentration, using a Coulter Counter. The remaining platelet rich plasma was dispensed into 50 ml conical tubes and centrifuged at room temperature for 15 minutes at 3000 RPM (2300×g).Plasma was decanted and the platelets were resuspended in 35 ml of buffer (10 mM Trizma 7.0, 2 mM EDTA (dipotassium salt), and 150 mM KCl) and transferred to fresh tubes, which were centrifuged again as above. The platelets were washed 3 times, avoiding contaminating erythrocytes at the bottom of the pellets. Pellets were consolidated at each step, and by the last wash with EDTA/KCl buffer, most of the erythrocytes were in 1 tube. The pellets were resuspended in buffer containing 10 mM Trizma 7.0 with 10 mM CaCl2. Following centrifugation, the buffer was decanted and the pellets were resuspended in the CaCl2 buffer, avoiding erythrocyte contamination by recovering less than 100% of the platelet pellets. The resuspended platelets were dispensed in 8-10 ml aliquots into Corex tubes and disrupted by three cycles of freezing (dry ice/ethanol) and thawing (24° C.). The tubes were centrifuged at 40,000×g for 20 minutes at 4° C. Supernatants were decanted and each pellet was resuspended in 5-7 ml 10 mM Trizma 7.0. All resuspended pellets were pooled and aliquots of about 1200 μl were dispensed into 1.5 ml microfuge tubes and frozen at -70° C. Protein content was determined by a fluorescamine protein assay.
Assay Methods: Receptor Characterization--Each receptor preparation was evaluated to determine the number of receptor populations, the number of PAF receptor equivalents/mg protein and the dissociation constant (KD) for PAF binding. This required 2-3 experiments in which the protein concentration was held constant and the ^3 H-PAF ligand concentration was varied from approximately 0.10-2.5 nM and the data was analyzed by Scatchard methodology. Total incubation volume was 250 μl for these procedures and incubations were conducted at 24° C. for 30 minutes. For further experimentation, total incubation volumes are 500 μl. Protein and ligand concentrations were adjusted to give 0.075 nM receptor equivalents in the presence of 0.75 nM ^3 H-PAF. Each receptor preparation was then used to determine the dose--response displacement relationship of unlabeled PAF and the PAF antagonist, triazolam.
Assay Methods: Routine Assay of Compounds--The compounds were weighed precisely and solubilized in quantities of DMSO such that a 5 μl aliquot in the incubate would deliver the desired compound concentration. Compounds tested for the first time in this assay were evaluated at a concentration of 50 μM in the incubation medium. […] Triazolam was always included in each screening assay as a compound inhibition control. […] Nonspecific binding control solution was made by drying to completion about 26.2 μl unlabeled PAF under a stream of argon. PAF was resolubilized in 1000 μl DMSO. When delivered in a 5 μl aliquot, the final concentration of 1 μM PAF in the incubate exceeded by 1000-fold the concentration of ^3 H-PAF.
All buffers containing proteins were made at room temperature on the day of assay. […]

In the case of `C=CCC(C(=O)c1ccc(Cn2ccc3ncnc-3c2)cc1)C1CCCCC1` (stereo not shown) [2-Cyclohexyl-1-[4-(5H-Imidazo[4,5-c]Pyridin-5-yl-Methyl)Phenyl]-4-Penten-1-One], the 50% inhibitory concentration (IC50) worked out at 633 nM with Rabbit Platelet [1], 105 nM in the experiment on Rabbit Platelet [2] and 2.22 nM at Human Platelet Receptor.
As to `O=C(CC1CCCCC1)c1ccc(Cn2ccc3ncnc-3c2)cc1` [2 Cyclohexyl-1-[4-(5H-Imidazo[4,5-c]Pyridin 5-yl-Methyl)Phenyl]Ethanone], the concentration for half-maximal inhibition (IC50) in the experiment on Rabbit Platelet [1] amounted to 948 nM; in the experiment on Rabbit Platelet [2] it was 131 nM; against Human Platelet Receptor it was 4.44 nM.
As for `O=C(CC1CCCC1)c1ccc(Cn2ccc3ncnc-3c2)cc1` [2-Cyclopentyl-1-[4-(5H-Imidazo[4,5-c]Pyridin-5-yl-Methyl)Phenyl]Ethanone], the concentration for half-maximal inhibition (IC50) in the experiment with Rabbit Platelet [1] was 2590 nM; in the experiment with Rabbit Platelet [2], 379 nM; against Human Platelet Receptor it was 8.41 nM.
For `Cc1nnc2n1-c1ccc(Cl)cc1C(c1ccccc1Cl)=NC2` [triazolam, reference compound], the inhibition at 50 µM on Human Platelet Receptor (read-out: inhibition of 3H-PAF binding) was about 50%.
On to `O=C(c1ccc(Cn2ccc3ncnc-3c2)cc1)C(C1CCCCC1)C1CCCC1` (stereo not shown) [2-Cyclohexyl-2-Cyclopentyl-1-[4-(5H Imidazol[4,5-c]Pyridin-5-yl-Methyl)Phenyl]Ethanone], for which the IC50 with Rabbit Platelet [1] was found to be 279 nM; with Rabbit Platelet [2], 89 nM; against Human Platelet Receptor, 1.46 nM.
